{"source": "patent US12186278B2", "about": "“Mesothelin chimeric antigen receptor (CAR) and antibody against PD-L1 inhibitor for combined use in anticancer therapy” (Novartis AG, priority 2015, dated 2025)", "key": {"[1]": {"experiment": "Pharmacokinetic analysis of RAD001 in blood of NSG mice with NALM6 tumors", "format": "in vivo", "protocol": "(§1) RAD001 dosing: A concentrated micro-emulsion of 50 mg equal to 1 mg RAD001 was formulated and then resuspended in D5W (dextrose 5% in water) at the time of dosing. Mice were orally dosed daily (via oral gavage) with 200 μl of the desired doses of RAD001.\nPK analysis: Mice were dosed daily with RAD001 starting 7 days post tumor implantation. Dosing groups were as follows: 0.3 mg/kg, 1 mg/kg, 3 mg/kg, and 10 mg/kg. Mice were bled on days 0 and 14 following the first and last dose of RAD001, at the following time points for PK analysis: 15 minutes, 30 minutes, 1 hour, 2 hours, 4 hours, 8 hours, 12 hours, and 24 hours."}, "NALM6-luc tumors": {"test_system": "NALM6-luc tumors", "experiment": "NALM6-luc tumor growth with daily RAD001 dosing", "format": "in vivo, NSG mice", "settings": "daily oral dosing of RAD001 alone, 0.3, 1, 3 and 10 mg/kg; FIG. 7", "protocol": "NALM6-luc cells: The NALM6 human acute lymphoblastic leukemia (ALL) cell line was developed from the peripheral blood of a patient with relapsed ALL. The cells were then tagged with firefly luciferase. These suspension cells grow in RPMI supplemented with 10% heat inactivated fetal bovine serum.\nMice: 6 week old NSG (NOD.Cg-Prkdc^scidIl2rg^tm1Wjl/SzJ) mice were received from the Jackson Laboratory (stock number 005557).\n(§2) Tumor implantation: NALM6-luc cells were grown and expanded in vitro in RPMI supplemented with 10% heat inactivated fetal bovine serum. The cells were then transferred to a 15 ml conical tube and washed twice with cold sterile PBS. NALM6-luc cells were then counted and resuspended at a concentration of 10×10^6 cells per milliliter of PBS. The cells were placed on ice and immediately (within one hour) implanted in the mice. NALM6-luc cells were injected intravenously via the tail vein in a 100 μl volume, for a total of 1×10^6 cells per mouse.\nas §1\nPK analysis: Mice were dosed daily with RAD001 starting 7 days post tumor implantation. Dosing groups were as follows: 0.3 mg/kg, 1 mg/kg, 3 mg/kg, and 10 mg/kg. […]"}, "[2]": {"test_system": "huCART19 cells co-cultured with Nalm-6", "experiment": "CART proliferation in 4 day co-culture with Nalm-6 in the presence of RAD001", "format": "cell-based, human", "protocol": "The effect of low doses of RAD001 on CAR T cell proliferation in vitro was evaluated by co-culturing CART-expressing cells with target cells in the presence of different concentrations of RAD001.\nA humanized, anti-human CD19 CAR (huCART19) lentiviral transfer vector was used to produce the genomic material packaged into VSVg pseudotyped lentiviral particles. The amino acid and nucleotide sequence of the humanized anti-human CD19 CAR (huCART19) is CAR 1, ID 104875 described in PCT publication, WO2014/153270, filed Mar. 15, 2014, and is designated SEQ ID NOs. 85 and 31 therein.\nLentiviral transfer vector DNA is mixed with the three packaging components VSVg env, gag/pol and rev in combination with lipofectamine reagent to transfect Lenti-X 293T cells. Medium is changed after 24 h and 30 h thereafter, the virus-containing media is collected, filtered and stored at −80° C. CARTs are generated by transduction of fresh or frozen naïve T cells obtained by negative magnetic selection of healthy donor blood or leukopak. T cells are activated by incubation with anti-CD3/anti-CD28 beads for 24 h, after which viral supernatant or concentrated virus (MOI=2 or 10, respectively) is added to the cultures. The modified T cells are allowed to expand for about 10 days. The percentage of cells transduced (expressing the CARs on the cell surface) and the level of CAR expression (relative fluorescence intensity, Geo Mean) are determined by flow cytometric analysis between days 7 and 9. The combination of slowing growth rate and T cell size approaching ˜350 fL determines the state for T cells to be cryopreserved for later analysis.\nTo evaluate the functionality of CARTs, the T cells are thawed and counted, and viability is assessed by Cellometer. The number of CAR-positive cells in each culture is normalized using non-transduced T cells (UTD). […]\nFor measuring the proliferation of CARTs, T cells are cultured with target cells at a ratio of 1:1. […] The number of T cells is assessed by flow cytometry using counting beads as reference."}, "huCAR19 CAR T cells": {"test_system": "huCAR19 CAR T cells", "experiment": "In vivo proliferation of humanized CD19 CAR T cells with and without RAD001 dosing", "design": "species or system NSG mice", "protocol": "This example evaluates the ability of huCAR19 cells to proliferate in vivo with different concentrations of RAD001.\nas §2\nCAR T cell dosing: Mice were administered 5×10^6 CAR T cells 7 days after tumor implantation. Cells were partially thawed in a 37 degree Celsius water bath and then completely thawed by the addition of 1 ml of cold sterile PBS to the tube containing the cells. The thawed cells were transferred to a 15 ml falcon tube and adjusted to a final volume of 10 mls with PBS. The cells were washed twice at 1000 rpm for 10 minutes each time and then counted on a hemocytometer. T cells were then resuspended at a concentration of 50×10^6 CAR T cells per ml of cold PBS and kept on ice until the mice were dosed. The mice were injected intravenously via the tail vein with 100 μl of the CAR T cells for a dose of 5×10^6 CAR T cells per mouse. Eight mice per group were treated either with 100 μl of PBS alone (PBS), or humanized CD19 CAR T cells.\nas §1\nBased on these doses, huCAR19 CAR T cells were dosed with and without RAD001 to determine the proliferative ability of these cells. The highest dose used was 3 mg/kg based on the levels of RAD001 in the blood 24 hours after dosing. As the concentration of RAD001 was above 10 nM 24 hours after the final dose of RAD001, several lower doses of RAD001 were used in the in vivo study with CAR T cells. The CAR T cells were dosed IV one day prior to the start of the daily oral RAD001 dosing. Mice were monitored via FACS for T cell expansion."}}}
{"molecule": "CO[C@H]1C[C@@H]2CC[C@@H](C)[C@@](O)(O2)C(=O)C(=O)N2CCCC[C@H]2C(=O)O[C@H]([C@H](C)C[C@@H]2CC[C@@H](OCCO)[C@H](OC)C2)CC(=O)[C@H](C)/C=C(\\C)[C@@H](O)[C@@H](OC)C(=O)[C@H](C)C[C@H](C)/C=C/C=C/C=C/1C", "note": "[RAD001, (1R,9S,12S,15R,16E,18R,19R,21R,23S,24E,26E,28E,30S,32S,35R)-1,18-dihydroxy-12-{(1R)-2-[(1S,3R,4R)-4-(2-hydroxyethoxy)-3-methoxycyclohexyl]-1-methylethyl}-19,30-dimethoxy-15,17,21,23,29,35-hexamethyl-11,36-dioxa-4-aza-tricyclo[30.3.1.04,9]hexatriaconta-16,24,26,28-tetraene-2,3,10,14,20-pentaone]", "values": [{"measurement": "concentration at 24 h", "setting": "[1]; NSG, mouse, blood, lowest dose tested (0.3 mg/kg), oral, day 0 and day 14 PK, read-out: RAD001 concentrations in the blood 24 hours after dosing", "value": "> 10", "unit": "nM"}, {"measurement": "concentration of RAD001 24 hours after the final dose", "setting": "[1]; blood, NSG mice with NALM6 tumors", "value": "above 10 nM"}, {"measurement": "stability in the blood of tumor bearing mice", "setting": "[1]; daily oral RAD001, FIGS. 8A and 8B", "value": "fairly stable"}, {"measurement": "growth of NALM6-luc tumors", "setting": "NALM6-luc tumors", "value": "did not have an impact"}, {"measurement": "proliferation of huCART19 compared with no RAD001", "setting": "[2]; 0.0032 and 0.016 nM RAD001, 4 day co-culture with Nalm-6", "value": "higher than observed without the addition of RAD001"}, {"measurement": "RAD001 concentration at which huCART19 cells expanded", "setting": "[2]; 4 day co-culture with Nalm-6 at 1:1, to a lesser extent at higher concentrations, FIG. 6", "value": "less than 0.016 nM"}, {"measurement": "proliferation of CAR-expressing, transduced T cells", "setting": "[2]; low doses of RAD001, co-culture with Nalm-6, 4 days, FIG. 6 legend", "value": "enhanced"}, {"measurement": "CAR T cell proliferation relative to normal level of huCAR19 proliferation", "setting": "huCAR19 CAR T cells; RAD001 0.003 mg/kg daily, FIG. 9 legend", "value": "enhancement in CAR T cell proliferation"}, {"measurement": "proliferation of the CAR T cells in vivo", "setting": "huCAR19 CAR T cells; lowest doses of RAD001, daily oral, huCAR19 CAR T cells IV one day before, FIGS. 9A and 9B", "value": "enhanced proliferation"}, {"measurement": "enhanced proliferation, CD4+ CAR T cells compared with CD8+ CAR T cells", "setting": "huCAR19 CAR T cells; lowest doses of RAD001, FIG. 9A", "value": "more evident and prolonged"}, {"measurement": "proliferation of CD8+ CAR T cells", "setting": "huCAR19 CAR T cells; lowest doses of RAD001, FIG. 9B", "value": "enhanced proliferation can be seen at early time points"}]}
